Laboratory results reported in patent EP0791056B1, “LIPID-CLEAVAGE ENZYME COMPLEX” (priority 1994, dated 1996).
Values joined by “and” are separate entries in the source; they are usually repeats but may differ in a detail not shown here. Equal entries are not always repeated.

Columns and labels:
LCE = LCE assay: cleavage of [14C]-AZT-DMDOPE/AZT-DMDOPE to DMDOP by fractions of human blood cells; format: biochemical; details: for Spezifische Aktivität: n = 4; for spezifische LCE-Aktivität / AZT-DMDOPE-spaltende Aktivität (spezifische Aktivität des LCE): n = 6; for Km / vmax: membrane fraction 0.068 mg/Ansatz
Description: Das Pipettierschema ist in der folgenden Tabelle angegeben. Tabelle
Zur Untersuchung der enzymatischen Spaltung in Abhängigkeit von der Substratkonzentration wurde eine Substratstammlösung von 0.98 nmol [^14C]-AZT-DMDOPE und 0.7 nmol AZT-DMDOPE/80 µl Aqua bidest. im LCE-Assay angesetzt. Die verschiedenen Substratkonzentrationen im LCE-Assay wurden durch kontinuierliche Verdopplung bzw. Halbierung des Volumens an Substratlösung eingestellt. Die Ansätze wurden in Glasröhrchen (5 ml) vorgelegt und durch Zugabe der Substratlösung gestartet. Die Inkubation wurde bei 37 °C im Wasserbad unter leichtem Schütteln durchgeführt.
Die Reaktionsansätze des LCE-Assays wurden nach entsprechender Inkubationszeit dem Wasserbad entnommen, und die Reaktion durch Zugabe von 750 µl 2-Propanol gestoppt. Nach gründlicher Durchmischung wurden die Ansätze anschließend mit 700 µl auf Raumtemperatur erwärmtem n-Heptan versetzt. Die Ansätze wurden erneut für 30 sec gut gemischt und zur Beschleunigung der Phasentrennung in der Minifuge T bei 3200 rpm für 15 min bei Raumtemperatur zentrifugiert. Anschließend wurden 500 µl der oberen Phase (n-Heptan) entnommen und in neue Glasröhrchen (5 ml) mit 10 mg Kieselgel 60 H und 200 µl n-Heptan überführt. Die Ansätze wurden für 30 sec gut durchmischt und zur Sedimentation des Kieselgels für 10 min unter oben genannten Bedingungen zentrifugiert. Vom Überstand wurden anschließend 500 µl entnommen und mit 3 ml Szintillationsflüssigkeit versetzt. Die Messung der Radioaktivität erfolgte für 4 min im Flüssigkeits-Szintillations-Analysator. Zur Bestimmung des Absolutwertes an Radioaktivität wurden 200 µl der Substratlösung mit 3 ml Szintillationsflüssigkeit versetzt und unter gleichen Bedingungen im Flüssigkeits-Szintillations-Analysator gemessen.
Für diese Untersuchungen ist ein Enzym-Assay etabliert, in dem AZT-DMDOPE und [^14C]-AZT-DMDOPE als Substrat eingesetzt wurde (Beispiel 6). […] Bei substratabhängigen Umsetzungen wurde eine Stammlösung von 0.98 nmol [^14C]-AZT-DMDOPE und 0.7 nmol AZT-DMDOPE /80 µl eingesetzt. Die verschiedenen Substratkonzentrationen wurden anschließend durch kontinuierliche Verdopplung bzw. Halbierung des Volumens an Substratlösung eingestellt.
Die Quantifizierung der enzymatischen Spaltung von AZT-DMDOPE wurde durch eine zweistufge Extraktion des Metaboliten DMDOP mit n-Heptan und anschließender Adsorption von Resten des Substrates AZT-DMDOPE an Kieselgel 60 H durchgeführt. Hierbei wurden die Reaktionsansätze mit 2-Propanol und n-Heptan versetzt. wobei sich das im Vergleich zum Substrat unpolare DMDOP in der n-Heptan-Phase anreichert. Die n-Heptan-Phase wurde dann mit Kieselgel 60 H versetzt, wobei Reste des Substrates AZT-DMDOPE adsorbiert werden. Die n-Heptan-Phase wurde anschließend durch Zentrifugation vom Kieselgel separiert, in 3 ml Aqua luma überführt und die in ihr enthaltene Menge an radioaktiv markiertem DMDOP im Flüssigkeits-Szintillations-Analysator über einen Zeitraum von 5 min bestimmt. Aus diesen Ergebnissen konnte die prozentuale Umsetzung des Substrates AZT-DMDOPE zu DMDOP und die spezifische Aktivität des LCE errechnet werden. Als spezifische Aktivität wurde hierbei die Menge an DMDOP bezeichnet die pro 1 mg Protein der eingesetzten Zellpräparationen pro Minute gebildet wurde.
Nach Bestimmung der Proteinkonzentration in Zellhomogenaten, Zytosol- und Membranfraktionen mit Hilfe des Bicinchoninsäure(BCS)-Tests wurden 0.025 - 0.20 mg Protein/Ansatz eingesetzt.
Zur Isolierung der Plasmamembranen wurden 2 ml einer Zellsuspension stimulierter humaner PBL mit einer Zelldichte von 2.5 x 10^8 Zellen/ml durch dreimaliges Einfrieren und Auftauen aufgeschlossen und durch Zentrifugation im Percoll-Dichtegradienten fraktioniert.

P3X63Ag8.653-Zellen = test: Intracellular concentrations of AZT and AZT nucleotides (radioimmunoassay) in thymidine kinase deficient cells; format: in vitro ADME; details: for maximale Konzentrationen an AZT und AZT-Nukleotiden: after 6 h; for maximale Konzentrationen, nur AZT erfaßt: after 24 h, without alkaline phosphatase; for Substanzspiegel an phosphoryliertem AZT: comparison before/after alkaline phosphatase
Source text: Die Bestimmung der intrazellulären Konzentrationen an AZT und AZT-Nukleotiden in Thymidikinasedefizienten Zellen sollte weitere Erkenntnisse über die intrazelluläre Spaltung der Testsubstanz AZT-DMDOPE liefern. Intrazelluläres AZT kann in diesen Zellen aufgrund eines Mangels an Thymidin-Kinase (TK) nicht in ATZ-MP und somit in das therapeutisch wirksame AZT-TP überführt werden. Die Bestimmung der intrazellulären Konzentrationen an AZT und AZT-Nukleotiden nach Inkubation mit AZT-DMDOPE könnte somit einen weiteren Hinweis auf die Spaltung der Teststubstanz geben.
Hierfür wurden in Gewebekulturschalen (60 x 15 mm) 1 x 10^7 Zellen in RPMI 1640 Komplettmedium I mit 0.03 bzw. 0.3 µg AZT/ml und 1 bzw. 10 µg AZT-DMDOPE/ml über 6, 24 und 48 h inkubiert. Nach Extraktion von AZT und der AZT-Nukleotide und einer Behandlung mit alkalischer Phosphatase wurde die Konzentration an AZT mit Hilfe des Radioimmuno-Assays bestimmt.

[1] = humane Monozyten/Makrophagen (stimulierte Monozyten), 37 °C, 2 h
[2] = nichtstimulierte humane PBL, 37 °C, 2 h
[3] = stimulierte humane PBL, 37 °C, 2 h

For `CCCCCCCCCCCCSCC(COP(=O)(O)OC[C@H]1O[C@@H](n2cc(C)c(=O)[nH]c2=O)C[C@@H]1N=[N+]=[N-])OCCCCCCCCCC` (some centres unmarked) [AZT-DMDOPE, (3'-Desoxy-3'-azidothymidin)-5'-phosphorsäure-(3-dodecyl-mercapto-2-decyloxy)-propylester], the “höchste spezifische LCE-Aktivität” value (LCE; Fraktion 8 (plasma membrane enriched) of Percoll gradient, stimulierte humane PBL, 0.05 mg protein/Ansatz, 37 °C, 2 h) was 4.40 pmol mg^-1 min^-1 min, the “Spezifische Aktivität” value (LCE; Membranfraktion humaner Monozyten isolated in hypertonic density gradient, linear range) was 3.2 + 0.60 pmol mg^-1 min^-1 and the “Spezifische Aktivität” value (LCE; Membranfraktion humaner Monozyten/Makrophagen (stimulated by adherence)) was 8.8 ± 0.26 pmol/mg/min. For the same compound, the “spezifische LCE-Aktivität” value (LCE; Membranfraktion nichtstimulierter humaner PBL, calculated from linear range) was 1.45 ± 0.32 pmol/mg/min, the “spezifische LCE-Aktivität” value (LCE; Membranfraktionen stimulierter humaner PBL, 2 h 37 °C) was 14.23 ± 0.70 pmol/mg/min and 14.23 ± 0.7 pmol/mg/min and the “AZT-DMDOPE-spaltende Aktivität (spezifische Aktivität des LCE)” value (LCE; Zellhomogenate stimulierter humaner PBL, 2 h 37 °C) was 6.48 ± 0.38 pmol/mg/min. The “AZT-DMDOPE-spaltende Aktivität (spezifische Aktivität des LCE)” value (LCE; Zytosolfraktionen stimulierter humaner PBL, 2 h 37 °C) was 1.65 ± 0.40 pmol/mg/min, the “spezifische Aktivitäten” value (LCE; all further fractions of Percoll gradient, stimulierte humane PBL, 0.05 mg protein/Ansatz, 37 °C, 2 h) was 1.10 to 1.90 pmol/mg/min and the Km (LCE; humane Monozyten, 37 °C, 2 h) was 12.1 ± 4.13 µM. For the same compound, the vmax (LCE; humane Monozyten, 37 °C, 2 h) was 1.61 ± 0.37 pmol/mg/min, the Km (LCE; [1]) was 4.63 ± 0.45 µM and the vmax (LCE; [1]) was 9.09 ± 0.44 pmol/mg/min. It also gave a Km (LCE; [2]) of 5.51 ± 0.99 µM, a vmax (LCE; [2]) of 2.03 ± 0.19 pmol/mg/min and a Km (LCE; [3]) of 2.26 ± 0.16 µM. The vmax (LCE; [3]) was 15.29 ± 0.37 pmol/mg/min, the “maximale Konzentrationen an AZT und AZT-Nukleotiden” value (P3X63Ag8.653-Zellen; 1 µg AZT-DMDOPE/ml) was 0.55 ng/10^6 Zellen and the “maximale Konzentrationen, nur AZT erfaßt” value (P3X63Ag8.653-Zellen; 1 µg AZT-DMDOPE/ml) was 0.05 ng/mL. For the same compound, the “Substanzspiegel an phosphoryliertem AZT” value (P3X63Ag8.653-Zellen; 1 µg AZT-DMDOPE/ml) was 0.48 ng/10^6 Zellen, the “maximale Konzentrationen an AZT und AZT-Nukleotiden” value (P3X63Ag8.653-Zellen; 10 µg AZT-DMDOPE/ml) was 4.40 ng/10^6 Zellen and the “maximale Konzentrationen, nur AZT erfaßt” value (P3X63Ag8.653-Zellen; 10 µg AZT-DMDOPE/ml) was 1.10 ng/mL. For the same compound, the “Substanzspiegel an phosphoryliertem AZT” value (P3X63Ag8.653-Zellen; 10 µg AZT-DMDOPE/ml) was 2.42 ng/10^6 Zellen and the “intrazelluläre Konzentrationen an AZT und AZT-Nukleotiden im Vergleich zu äquipotenten Konzentrationen an AZT” value (P3X63Ag8.653-Zellen; 6, 24 and 48 h incubation) was “deutlich höher”.
